Data published in PubChem BioAssay AID2077 (NMMLSC, 2009).
pEC50: −log10 of the molar value. Active and inactive are the calls of the source. How the calls were made is not given here.

Molecular target: Bcl-2-like protein 10 (Homo sapiens) (UniProt Q9HD36)
Experiment: inhibitors of Bim-Bcl-B binding, confirmation, biochemical, dose response, multiplexed HTS hits (AID 2077)
Details: bead-based flow cytometry, Bim peptide-Bcl-B binding

Chain of Bcl-2-like protein 10 (Homo sapiens) (Q9HD36 whole entry, looked up): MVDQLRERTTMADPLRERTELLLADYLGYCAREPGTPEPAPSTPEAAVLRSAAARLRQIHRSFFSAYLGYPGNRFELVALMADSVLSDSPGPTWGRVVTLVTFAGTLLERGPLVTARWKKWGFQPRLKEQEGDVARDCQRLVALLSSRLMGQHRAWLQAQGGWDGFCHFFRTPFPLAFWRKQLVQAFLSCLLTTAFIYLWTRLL

SMILES	pEC50
COc1ccc(N2C(=O)C(Cl)=C(NC3C(=O)N(c4ccccc4)N(C)C3C)C2=O)cc1 (stereo unspecified)	6.21

Same assay, conditions: bead-based flow cytometry, Bim peptide-Bcl-B binding; at 100 µM (top of the series)

SMILES	response change, negative = inhibition
CCN1C(=O)/C(=C\C=C2/C=CC=CN2CC)SC1=S	inactive
Cc1ccc(-c2cc(-c3ccc(F)cc3)c(C#N)c(N)n2)o1	inactive
COc1cc(N=C2SSNC2Cl)c(OC)cc1Cl (stereo unspecified)	inactive
O=C1C(Cl)=C(N2CCN(c3ccccc3[N+](=O)[O-])CC2)C(=O)c2ccccc21	inactive
C=CS(=O)(=O)c1sc(Cl)c(N2CCOCC2)c1[N+](=O)[O-]	inactive
CN(CCO)c1cc(Sc2nc3ccccc3s2)c2nonc2c1[N+](=O)[O-]	inactive
CCN(CC)c1ccc(NC(=O)c2ccccc2F)cc1S(=O)(=O)Nc1ccccc1OC	inactive
Cc1ccc(-c2cc(-c3ccc(C)o3)nc(N)c2C#N)cc1	inactive
CCOc1ccccc1CNc1ccc(O)cc1	inactive
Cc1ccc(-c2cc(C(=O)Nc3nccs3)c3ccccc3n2)o1	inactive
O=C1c2ccccc2C(=O)N1CN(C(=O)COc1ccc(Cl)cc1Cl)c1cccc(F)c1	inactive
COc1ccccc1NC1=C(NC(C)=O)C(=O)c2ccccc2C1=O	inactive
CCN(CC)C(=O)COC(=O)c1cc(-c2ccco2)nc2ccccc12	inactive
CC(=O)OCCCNc1cc(Sc2nc3ccccc3s2)c2nonc2c1[N+](=O)[O-]	inactive
O=[N+]([O-])c1c(NCCCO)cc(Sc2nc3ccccc3s2)c2nonc12	inactive
CCN(CC)c1ccc(NC(=O)COc2ccccc2C)cc1S(=O)(=O)Nc1ccccc1OC	inactive
O=C(/C=C/c1ccc(-c2ccccc2[N+](=O)[O-])o1)c1ccccc1	inactive
Oc1ccc(NCc2ccccc2OCc2ccccc2)cc1	inactive
Cc1ccc(-c2nc3c(c(=O)[nH]c(=O)n3Cc3ccccc3)n2C)o1	inactive
COc1ccc(CCNC(=O)c2ccc3nc(-c4ccco4)c(-c4ccco4)nc3c2)cc1OC	inactive
COc1cc(CNc2ccc3[nH]c(=O)[nH]c3c2)cc(Br)c1OCC(=O)NC(C)(C)C	inactive
CNC(CC(=O)c1ccc([N+](=O)[O-])cc1)C(Cl)(Cl)Cl (stereo unspecified)	inactive
Cc1cc2nn(-c3cccc4ccccc34)nc2cc1N	inactive
CNC1CCC(Br)CC(C(=O)/C=C/c2cccc(OC)c2OC)C1=O (stereo unspecified)	inactive
Cc1nnc(Sc2cc(NCCO)c([N+](=O)[O-])c3nonc23)s1	inactive
